Data taken from PMC3401907, “Cellular Uptakes, Biostabilities and Anti-miR-210 Activities of Chiral Arginine-PNAs in Leukaemic K562 Cells” (Chembiochem, 2012).

Key:
[1] = tested on: RNA1 (target region of miR-210); experiment: Melting temperature (Tm) of PNA:RNA duplexes, full-match RNA; assay type: binding; settings: UV absorbance at 260 nm, strand concentration 5 μM
Procedure: Measurements of Tm values: The Tm values were determined with a Lambda Bio 20 spectrophotometer and a Peltier PTP6 temperature programmer. Thermal denaturation profiles were measured by monitoring the absorbance at 260 nm from 18 to 90 °C with a heating rate of 1 °C min^−1 and recording every 0.1 °C. […]

[2] = tested on: RNA2 (mismatched RNA, G→U); experiment: Melting temperature (Tm) of PNA:RNA duplexes, single-mismatch RNA; assay type: binding; settings: UV absorbance at 260 nm, PBS buffer pH 7 with urea 5 M, strand concentration 5 μM
Description: Sequence selectivity is a very important issue in view of the use of PNAs in cellular systems, because partial hybridisation might occur with other unrelated miRNAs or, most importantly, with mRNA targets. We analysed the sequence selectivities of our PNAs with stricter models (DNA2 and RNA2) involving single base mismatches (G→T or G→U) located in the middle of the target sequences. In each case the sequence selectivity was confirmed by significant lowering of the melting temperature. The ranges of ΔTm due to the presence of these single mismatches were 8–21 °C for DNA, with the maximum drop in the case of PNA4 and the minimum observed in that of PNA6. For the latter it should be considered that the mismatch was facing the last chiral monomer, preventing the cooperative effect observed in the case of 2D-modifed highly constrained PNA.[22]
Measurements of Tm values: The Tm values were determined with a Lambda Bio 20 spectrophotometer and a Peltier PTP6 temperature programmer. Thermal denaturation profiles were measured by monitoring the absorbance at 260 nm from 18 to 90 °C with a heating rate of 1 °C min^−1 and recording every 0.1 °C. Measurement conditions: [PNA]=[DNA] or [RNA]=5 μM in PBS buffer [pH 7.0, NaCl (100 mM), NaH2PO4⋅H2O (10 mM), EDTA (0.1 mM)] with urea (5 M).

[3] = tested on: miR-210; experiment: miR-210 content by RT-qPCR analysis; assay type: cell-based, human; settings: K562 cells, 24 h
Procedure: K562 cells were treated with 15 nM mithramycin in the presence of a PNA (2 μM), and after 24 h RNA was isolated and miR-210 was assayed by RT-qPCR analysis. This type of test has been used to evaluate miR content in many studies because it allows the free-miR content to be evaluated. […] Figure 5 A and B reports the obtained data, showing that inhibition of miR bioavailability was induced both with the modified PNA and with the peptide-conjugated one, whereas in the case of PNA1 it was unchanged. […] This might be related to inhibition of pre-miR maturation or to unavailability of the miR to the qRT-PCR analysis due to strong complexation with the PNA. In either case the bioavailability of the miR for targeting other genes should be reduced.
Transfection procedures: Anti-miR-210 PNAs were directly added to the cellular medium to reach the indicated final concentrations. K562 cells were cultured in 24-well plates starting from the initial density of 30 000 cells per mL. MTH was administrated together with anti-miR PNAs.
RNA extraction: Cells were isolated by centrifugation at 1500 rpm for 10 min at 4 °C, washed in PBS and lysed in Tri-reagent (Sigma–Aldrich) according to the manufacturer's instructions. The isolated RNA was washed once with cold ethanol (75 %), dried and dissolved in ultrapure nuclease-free water.
Real-time quantitative PCR: For microRNA quantification with real-time RT-PCR reagents, the primers and probes were obtained from Applied Biosystems. Reverse transcriptase (RT) reactions were performed with a TaqMan MicroRNA Reverse Transcription Kit (Applied Biosystems) for hsa-miR-210, hsa-miR-10a, hsa-miR-93, hsa-miR-99b, hsa-miR-126, hsa-miR-149, hsa-miR-424, hsa-miR-483-5p, hsa-miR-625, hsa-let-7c and the iQTM5 real-time PCR System Instrument (Bio-Rad). Relative expression was calculated by the comparative cycle threshold method and U6 microRNA was used as reference gene to normalise all RNA samples, because it is constant in the assayed samples by miR-profiling and quantitative RT-PCR analysis as previously reported.[25]

[4] = tested on: γ-globin gene expression; experiment: γ-globin gene expression by RT-qPCR; assay type: cell-based, human; settings: mithramycin-treated (15 nM) K562 cells, PNA 2 μM single administration, 72 h, n=3
Procedure: The strong inhibition of miR-210 by PNA2 and PNA4 might thus result in appreciable reduction of γ-globin gene expression.
Figure 6 A) Effects of pept-1, PNA1, PNA2 and PNA4 molecules (each 2 μM) on γ-globin content in K562 cell cultures for 72 h with MTH (15 nM). Data are reported as arbitrary units relative to cells treated with pept-1 and MTH (average±SD, n=3, *: p<0.05, **: p<0.01). B), C) Effects of treatment (72 h) with pept-1, PNA1, PNA2 and PNA4 molecules on K562 cells induced to erythroid differentiation by MTH (15 nM): B) summary of three independent experiments, C) a representative experiment showing staining of the cells with benzidine.
The nucleotide sequences used for real-time qPCR analysis of γ-globin mRNAs were γ-globin forward primer (5′-TGGCAA GAAGGT GCTGAC TTC-3′), γ-globin reverse primer (5′-TCACTC AGCTGG GCAAAG G-3′) and γ-globin probe (5′-FAM-TGGGAG ATGCCA TAAAGC ACCTGG-TAMRA-3′).[25] The relative expression was calculated by the comparative cycle threshold method with endogenous control human 18S rRNA as reference genes.[25]

[5] = tested on: K562 cells; experiment: Mithramycin-induced erythroid differentiation (benzidine-positive cells); assay type: cell-based, human; settings: MTH 15 nM, PNA 2 μM, benzidine-positive cells after 5 days of induction, three independent experiments
Procedure: In order to evaluate effects on mithramycin-induced cellular differentiation, K562 cells were treated with MTH in the presence of pept-1, PNA1, PNA2 and PNA4 (each 2 μM). The proportions of benzidine-positive cells were determined after 5 days of induction.
Human cell lines and culture conditions: Human leukaemia K562 cells were cultured under humidified CO2 (5 %)/air in RPMI 1640 medium (Sigma) supplemented with foetal bovine serum (FBS, 10 %, Analitical de Mori, Milan, Italy), penicillin (50 units mL^−1) and streptomycin (50 μg mL^−1).[26] Mithramycin (MTH) was from Sigma. Stock solutions of MTH (100 μM) were stored at −20 °C in the dark and diluted immediately before use. Treatment of K562 cells with MTH was carried out by addition of the appropriate drug concentrations at the beginning of the cultures (cells were seeded at 30 000 mL^−1). The medium was not changed during the induction period. To determine antiproliferative activity, cell growth was studied by determining the cell number per mL with a Z1 Coulter Counter (Coulter Electronics, Hialeah, FL, USA). Erythroid differentiated K562 cells containing haemoglobin were detected by specific reaction with a benzidine/hydrogen peroxide solution as reported elsewhere.[26] The final concentration of benzidine was 0.2 % in glacial acetic acid (5 M) and H2O2 (10 %).

For “H-C5LArgC5LArgG5LArgC5LArgT5LArgG5LArgT5LArgC5LArgACACGCACAG-NH2 [PNA4, 5L Arg (C5) backbone-modified 18-mer PNA, model 2, stretch of consecutive modified monomers]”, the “Tm, RNA1 in water” value ([1]; PBS buffer pH 7, no urea) was greater than 90 °C, the “Tm, RNA1 in urea (5 M)” value ([1]; PBS buffer pH 7 with urea 5 M) was 86 °C and the “Tm, RNA2 in urea (5 M)” value [2] was 75 °C. For the same substance, the “miR-210 inhibition upon treatment with mithramycin” value ([3]; PNA 2 μM with MTH 15 nM, relative to pept-1 and MTH) was “best results”, the “inhibition of miR-210 bioavailability (miR-210 content)” value ([3]; PNA 2 μM, Figure 5 A and B, relative to pept-1) was “Stronger inhibition” and the “effect on γ-globin gene expression” value [4] was “inhibited γ-globin gene expression”. The “effect on MTH-induced erythroid differentiation” value [5] was “able to inhibit erythroid differentiation”.
